Where a SMILES comes first, the peptide text is derived from it. The star is where a group is joined. AMC = Cc1cc(=O)oc2cc(N*)ccc12; Cbz = O=C(OCc1ccccc1)*

The IC50 is the concentration needed to halve the response being measured. By Km is commonly meant the concentration of substrate that gives half-maximal velocity. The term kcat denotes the maximal rate divided by the concentration of active sites.

human plasma kallikrein, sequence (P03952 391-638 limits assumed): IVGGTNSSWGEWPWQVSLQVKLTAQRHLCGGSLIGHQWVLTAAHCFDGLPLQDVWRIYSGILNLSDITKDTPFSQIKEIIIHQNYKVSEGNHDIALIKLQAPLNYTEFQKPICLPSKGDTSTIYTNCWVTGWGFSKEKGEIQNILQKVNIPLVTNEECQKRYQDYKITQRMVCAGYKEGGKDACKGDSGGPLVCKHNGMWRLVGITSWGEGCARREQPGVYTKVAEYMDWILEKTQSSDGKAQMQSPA
human plasma kallikrein, sequence (P03952 20-390 partner limits assumed): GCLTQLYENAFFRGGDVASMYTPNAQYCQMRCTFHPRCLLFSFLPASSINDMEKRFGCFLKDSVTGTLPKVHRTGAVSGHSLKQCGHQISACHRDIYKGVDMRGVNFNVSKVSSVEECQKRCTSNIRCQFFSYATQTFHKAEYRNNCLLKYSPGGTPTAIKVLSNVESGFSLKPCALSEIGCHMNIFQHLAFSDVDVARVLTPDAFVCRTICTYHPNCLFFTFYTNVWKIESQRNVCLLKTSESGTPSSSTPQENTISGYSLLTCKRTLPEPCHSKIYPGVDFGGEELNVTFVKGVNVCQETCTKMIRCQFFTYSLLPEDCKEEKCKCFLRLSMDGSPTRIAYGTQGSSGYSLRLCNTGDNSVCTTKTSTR

The target in one test is human plasma kallikrein (Homo sapiens, UniProt P03952). Kind of test: Kallikrein inhibition FLINT assay with quenched AMC peptide substrate Z-Gly-Pro-Arg-AMC (end point EP or kinetic KIN reads). The class given is biochemical. The settings on record: kinetic reads at 5 min intervals over 30 min; read-out: Kallikrein (KIN) IC50. On the procedure:
A fluorescence intensity (FLINT) based assay was used to monitor inhibition of human plasma kallikrein.
The Kallikrein FLINT assay was used with the following Z-Gly-Pro-Arg-AMC assay buffer: 50 mM Tris, pH 7.5, 100 mM NaCl, 5 mM CaCl2, 0.1 mg/mL BSA, 0.03% CHAPS. Assay buffer was prepared by mixing all ingredients fresh. 2× Z-Gly-Pro-Arg-AMC peptide substrate was prepared by diluting 10 mM stock into 1× assay buffer for a 100 μM working concentration (50 μM final concentration).
Test compound(s) were run in an 11-point, 3-fold serial dilution with a final top compound concentration of 1 μM. Final DMSO in assay was 2%. Plasma kallikrein was pre-incubated for 30-minute with compound and then 50 μM substrate was added to initiate the reaction. The assay was run with either end point (EP) reads at 30 min or kinetic (KIN) reads at 5 min intervals over 30 minutes.
Percent inhibition (IC50) curves were generated per compound tested, and data was analyzed using a 4-parameter logistic fit using GeneData Screener. The relative fluorescence unit (RFU) values were normalized to percent inhibition using the following equation: % inhibition=((HC−LC)−(compound−LC)/(HC−LC))*100
An 11-point dose response curve for the test compound(s) was generated using GENDATA to determine IC50 value based on the following equation: Y=Bottom+(Top−Bottom)/(1+10^((log IC50−X)*HillSlope))
Results listed in columns with […] designation were measured using endpoint reads where a single fluorescence reading was measured for each well at a 30 min timepoint.
With `NC(=O)C1CC1CC(c1ccc(-c2c(-n3cnnn3)ccc(Cl)c2F)c[n+]1[O-])n1cc(-c2cc[n+]([O-])cc2)cn1` (single isomer, unassigned) [Example P282], the IC50 worked out at 775 nM.
Still for that read-out and setting: under `Cn1ccc(C[C@H](c2ccc(-c3cc(Cl)ccc3OCC(F)(F)F)c[n+]2[O-])n2cc(-c3ccc(C(=O)O)cc3)cn2)n1` [Example Q58] stands 517 nM; under `NC(=O)c1ccc(-c2cnn(C(Cc3ccn(C(F)F)n3)c3ccc(-c4c(-n5cc(Cl)nn5)ccc(Cl)c4F)c[n+]3[O-])c2)cc1` (single isomer, unassigned) [Example P911], 0.2 nM.
Regarding `Cc1nnc(CC(c2ccc(-c3c(-n4cc(C(F)(F)F)nn4)ccc(Cl)c3F)c[n+]2[O-])n2cc(-c3ccc(C(N)=O)c(F)c3)cn2)o1` (stereo not shown) [Example P927], the IC50 came out at 7.6 nM.
On the same count and under the same terms, under `[O-][n+]1cc(-c2c(-n3cnnn3)ccc(Cl)c2F)ccc1[C@@H](Cc1ccc(F)cc1)n1cc(-c2ccn(C(F)F)n2)cn1` [Example P569] stands 7.5 nM.
On the same count and under the same terms, then `[O-][n+]1cccc(-c2cnn(C(Cc3ccc(Cl)cc3)c3ccc(-c4cc(Cl)ccc4-n4cnnn4)c[n+]3[O-])c2)c1` (stereo not shown) [Example P151], with 80.1 nM; and `O=C(NC1CC1)c1ccc(-c2cnn(C(CC3CCCCO3)c3ccc(-c4c(-n5cnnn5)ccc(Cl)c4F)c[n+]3[O-])c2)cc1` (single isomer, unassigned) [Example P143], with 58.1 nM; and `O=C1OCCN1CC(c1ccc(-c2c(-n3cnnn3)ccc(Cl)c2F)c[n+]1[O-])n1cc(-c2ccnc(C(F)(F)F)c2)cn1` (single isomer, unassigned) [Example P430], with 38 nM.
The same measure, in the same setting: under `O=C(O)c1ccc(-c2cnn(C(CC3CC3)c3ccc(-c4c(C(F)F)ccc(Cl)c4F)c[n+]3[O-])c2)cc1` (single isomer, unassigned) [Example Q13] stands 97.1 nM; under `[O-][n+]1cc(-c2c(-n3cc(Cl)nn3)ccc(Cl)c2F)ccc1[C@@H](Cn1cccn1)n1cc(-c2cnnn2C(F)F)cn1` [Example P685], 151 nM; under `O=C(NC1CC1)c1ccc(-c2cnn(C(Cc3ccc(-c4ccccc4)cc3)c3ccc(-c4cc(Cl)ccc4-n4cnnn4)c[n+]3[O-])c2)cc1` (stereo not shown) [Example P87], 79.8 nM.
Regarding `N#Cc1cnn(C(F)F)c1-c1cnn(C(CC2CC2)c2ccc(-c3c(-n4cnnn4)ccc(Cl)c3F)c[n+]2[O-])c1` (single isomer, unassigned) [Example P663], the IC50 was determined as 933 nM.
The same measure, in the same setting: under `[O-][n+]1cc(F)c(-c2cnn(C(CC3CC3)c3ccc(-c4c(-n5cnnn5)ccc(Cl)c4F)c[n+]3[O-])c2)c(Cl)c1` (stereo not shown) [Example P518] stands 383 nM; under `O=C(O)C1CCN(C(=O)C2CC2CC(c2ccc(-c3c(-n4cnnn4)ccc(Cl)c3F)c[n+]2[O-])n2cc(-c3ccccc3)cn2)CC1` (stereo not shown) [Example P215], 755 nM.
Same read-out and setting: then `[2H]C([2H])(C[C@H](c1ccc(-c2c(-n3cc(C(F)(F)F)nn3)ccc(Cl)c2F)c[n+]1[O-])n1cc(-c2ncnn2C)cn1)OC(F)F` [Example P834], with 68 nM.
On the same count and under the same terms, under `COC(=O)Nc1ccc(-c2cnn(C(Cc3ccc(Cl)cc3)c3ccc(-c4c(-n5cnnn5)ccc(Cl)c4F)c[n+]3[O-])c2)cc1` (single isomer, unassigned) [Example P160] stands 7 nM.
For `NC(=O)c1ccc(-c2cnn(C(CC3CC3)c3ccc(-c4c(-n5cnnn5)ccc(Cl)c4F)c[n+]3[O-])c2)cc1F` (single isomer, unassigned) [Example P946], the IC50 was 834 nM.
Still for that read-out and setting: under `COCC[C@H](c1ccc(-c2c(-n3cc(Cl)nn3)ccc(Cl)c2F)c[n+]1[O-])n1cc(-c2c(F)cnn2C(F)F)cn1` [Example P626] stands 322 nM; under `Cn1nncc1-c1cnn([C@H](Cc2ccn(C(F)F)n2)c2ccc(-c3c(-n4cc(C(F)(F)F)nn4)ccc(Cl)c3F)c[n+]2[O-])c1` [Example P792], 76.2 nM; under `Cn1ncnc1-c1cnn([C@H](CCOC(F)F)c2ccc(-c3c(-n4cc(C5CC5)nn4)ccc(Cl)c3F)c[n+]2[O-])c1` [Example P781], 203 nM.
For `[O-][n+]1cc(-c2c(-n3cnnn3)ccc(Cl)c2F)ccc1C(CC1CC1)n1cc(-c2cnsc2)cn1` (stereo not shown) [Example P456], the IC50 amounted to 630 nM.
The same measure, in the same setting: then `NC(=O)c1ccc(-c2cnn(C(CN3CCCC3=O)c3ccc(-c4c(-n5cc(C(F)(F)F)nn5)ccc(Cl)c4F)c[n+]3[O-])c2)cc1F` (single isomer, unassigned) [Example P937], with 2.7 nM; and `[O-][n+]1ccc(-c2cnn(C(CC3CC3)c3ccc(-c4c(-n5cnnn5)ccc(Cl)c4F)c[n+]3[O-])c2)cn1` (stereo not shown) [Example P398], with 730 nM.
Regarding `Cn1nnc(Cl)c1-c1cnn([C@H](CCOC(F)F)c2ccc(-c3c(-n4cnnn4)ccc(Cl)c3F)c[n+]2[O-])c1` [Example P726], the IC50 was determined as 7.7 nM.
The same measure, in the same setting: then `[O-][n+]1cc(-c2c(-n3cnnn3)ccc(Cl)c2F)ccc1C(CC1CC1)n1cc(-c2ccncn2)cn1` (single isomer, unassigned) [Example P258], with 201 nM; and `CC(C)(C)c1cc(-c2cnn(C(Cn3cc(F)cn3)c3ccc(-c4c(-n5cnnn5)ccc(Cl)c4F)c[n+]3[O-])c2)ccn1` (stereo not shown) [Example P395], with 25.5 nM.
Still for that read-out and setting: under `NC(=O)c1ccc(-c2cnn(C(CCOC(F)F)c3ccc(-c4c(-n5cc(Cl)nn5)ccc(Cl)c4F)c[n+]3[O-])c2)cc1` (single isomer, unassigned) [Example P895] stands 702 nM; under `[O-][n+]1cc(-c2c(-n3cc(C4CC4)nn3)ccc(Cl)c2F)ccc1C(Cn1cc(F)cn1)n1cc(-c2ccnc(C(F)(F)F)c2)cn1` (stereo not shown) [Example P485], 670 nM; under `Cn1nccc1-c1cnn(C(Cn2cc(F)cn2)c2ccc(-c3c(-n4cnnn4)ccc(Cl)c3F)c[n+]2[O-])c1` (single isomer, unassigned) [Example P501], 736 nM.
The same measure, in the same setting: then `[O-][n+]1cc(-c2c(-n3cnnn3)ccc(Cl)c2F)ccc1C(CC1CC1)n1cc(-c2cnco2)cn1` (stereo not shown) [Example P455], with 496 nM; and `CCOC(=O)C1CC1CC(c1ccc(-c2cc(Cl)ccc2-n2cnnn2)c[n+]1[O-])n1cc(-c2ccc(C(=O)O)cc2)cn1` (stereo not shown) [Example P68], with 513 nM.
As to `N#Cc1cc(-c2cnn(C(CN3CCOC3=O)c3ccc(-c4c(-n5cnnn5)ccc(Cl)c4F)c[n+]3[O-])c2)ccn1` (single isomer, unassigned) [Example P439], the IC50 was found to be 69.8 nM.
Turning to `COc1cc(C(CC2CC2)n2cc(-c3ncnn3C)cn2)[n+]([O-])cc1-c1cc(Cl)ccc1C#N` (single isomer, unassigned) [Example Q61], the IC50 came to 281 nM.
On the same count and under the same terms, then `[O-][n+]1cc(-c2c(-n3cnnn3)ccc(Cl)c2F)ccc1C(CCOC(F)F)n1cc(-c2c(Cl)ncn2C(F)F)cn1` (single isomer, unassigned) [Example P843], with around 71 nM; and `COCC[C@H](c1ccc(-c2c(-n3cnnn3)ccc(Cl)c2F)c[n+]1[O-])n1cc(-c2nn(C(F)F)cc2Cl)cn1` [Example P576], with 62.4 nM; and `CN(CC(c1ccc(-c2c(-n3cnnn3)ccc(Cl)c2F)c[n+]1[O-])n1cc(-c2ccnc(C(F)(F)F)c2)cn1)C(=O)OCc1ccccc1` (single isomer, unassigned) [Example P375], with 55.9 nM.
Same read-out and setting: then `Cn1cnc(Cl)c1-c1cnn([C@H](CC2CC2)c2ccc(-c3c(-n4cnnn4)ccc(Cl)c3F)c[n+]2[O-])c1` [Example P848], with 185 nM; and `[O-][n+]1cc(-c2c(-n3cnnn3)ccc(Cl)c2F)ccc1C(Cn1cc(C(F)(F)F)cn1)n1cc(-c2ccnc(F)c2)cn1` (stereo not shown) [Example P331], with 28.5 nM; and `CCn1ncc(-c2cnn(C(CC3CC3)c3cc(OC)c(-c4c(-n5cnnn5)ccc(Cl)c4F)c[n+]3[O-])c2)cc1=O` (stereo not shown) [Example P170], with 46.8 nM.
The same measure, in the same setting: under `[O-][n+]1cc(-c2c(-n3cnnn3)ccc(Cl)c2F)ccc1[C@@H](Cn1ccc(OC(F)F)n1)n1cc(-c2ccnc(C(F)(F)F)c2)cn1` [Example P533] stands 7.7 nM.
For the molecule `Nc1ccc(-c2cnn(C(Cn3cc(CC(=O)N4CCCCC4)cn3)c3ccc(-c4c(-n5cnnn5)ccc(Cl)c4F)c[n+]3[O-])c2)c(F)n1` (stereo not shown) [Example P471], the IC50 was 51.7 nM.
The same measure, in the same setting: then `CNc1ncc(-c2cnn([C@H](CCOC(F)F)c3ccc(-c4c(-n5cnnn5)ccc(Cl)c4F)c[n+]3[O-])c2)cn1` [Example P552], with 56 nM.
Same read-out and setting: then `O=C(Cc1cnn(CC(c2ccc(-c3c(-n4cnnn4)ccc(Cl)c3F)c[n+]2[O-])n2cc(-c3ccnc(C(F)(F)F)c3)cn2)c1)N1CCCCC1` (stereo not shown) [Example P475], with 324 nM; and `Nc1ccc(-c2cnn(C(Cn3cc(F)cn3)c3ccc(-c4c(C(F)F)ccc(Cl)c4F)c[n+]3[O-])c2)c(F)n1` (single isomer, unassigned) [Example Q26], with 420 nM.

The test is the same for the next values; noted with them: peptide substrate of kallikrein; titration data fit to Michaelis-Menten equation.
Take `Cc1cc(=O)oc2cc(NC(=O)[C@H](CCCNC(=N)N)NC(=O)[C@@H]3CCCN3C(=O)CNC(=O)OCc3ccccc3)ccc12` [Z-Gly-Pro-Arg-AMC, reference compound] (Cbz-Gly-Pro-Arg-{AMC}): the Michaelis-Menten constant (Km) stood at 40 µM and the kcat was found to be 0.76 s⁻¹.

The values are drawn from US11814364B2, “Pyridine N-oxide derivatives useful as factor XIa inhibitors” (Janssen Pharmaceutica NV, priority 2021, dated 2023).
